Carcinogen call data for twelve molecules are collected here from PubChem BioAssay AID1259411 (Chemical Carcinogenesis Research Information System (CCRIS), 2018).

Calls of active or inactive are those of the source. The rule behind the calls is not given here.

The subject of the data set is rodent carcinogenicity bioassays, tumor incidence. The data set can be described thus: CCRIS carcinogenicity studies. The method in brief: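 NCI-built, expert-reviewed records of carcinogenicity and related test outcomes (mutagenicity, tumor promotion/inhibition) compiled from published and report sources, historical span 1985-2011, not updated.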
Setting [1] is: Species: MOUSE, Strain/Sex: B6C3F1/FEMALE, Route: INTRAPERITONEAL, Dose: 0, 7 NMOL (TOTAL DOSE), 1/7, 2/7 AND 4/7 OF THE TOTAL DOSE ADMINISTERED WITHIN 24 HR OF BIRTH AND AT 8 AND 15 D OF AGE.
Setting [2] is: Species: MOUSE, Strain/Sex: B6C3F1/MALE, Route: INTRAPERITONEAL, Dose: 0, 7 NMOL (TOTAL DOSE), 1/7, 2/7 AND 4/7 OF THE TOTAL DOSE ADMINISTERED WITHIN 24 HR OF BIRTH AND AT 8 AND 15 D OF AGE.

With `Nc1ccc(Cl)cc1N`, the carcinogen call (Species: MOUSE, Strain/Sex: B6C3F1/FEMALE, Route: ORAL, Dose: 0, 0.7, 1.4% TWA, IN DIET FOR 78 WK (STUDY DURATION: 96-97 WK), Dose: 0, 0.7, 1.4% TWA, IN DIET FOR 78 WK (STUDY DURATION: 96-97 WK), Tumor Site: Type of Lesion: LIVER: HEPATOCELLULAR CARCINOMA, HEPATOCELLULAR ADENOMA OR CARCINOMA) was “active; positive”; the carcinogen call (Species: MOUSE, Strain/Sex: B6C3F1/MALE, Route: ORAL, Dose: 0, 0.7, 1.4% TWA, IN DIET FOR 78 WK (STUDY DURATION: 95-97 WK), Dose: 0, 0.7, 1.4% TWA, IN DIET FOR 78 WK (STUDY DURATION: 95-97 WK), Tumor Site: Type of Lesion: LIVER: HEPATOCELLULAR CARCINOMA, HEPATOCELLULAR ADENOMA OR CARCINOMA) is “active; positive”; the carcinogen call (Species: RAT, Strain/Sex: F344/FEMALE, Route: ORAL, Dose: 0, 0.5, 1.0% IN DIET FOR 78 WK (STUDY DURATION: 106 WK), Dose: 0, 0.5, 1.0% IN DIET FOR 78 WK (STUDY DURATION: 106 WK), Tumor Site: Type of Lesion: URINARY BLADDER: PAPILLARY CARCINOMA OR TRANSITIONAL CELL CARCINOMA, PAPILLARY CARCINOMA OR TRANSITIONAL CELL CARCINOMA) was “active; positive”; the carcinogen call (Species: RAT, Strain/Sex: F344/MALE, Route: ORAL, Dose: 0, 0.5, 1.0% IN DIET FOR 78 WK (STUDY DURATION: 105-106 WK), Dose: 0, 0.5, 1.0% IN DIET FOR 78 WK (STUDY DURATION: 105-106 WK), Tumor Site: Type of Lesion: URINARY BLADDER: TRANSITIONAL CELL CARCINOMA, PAPILLOMA (NOS) OR TRANSITIONAL CELL PAPILLOMA OR TRANSITIONAL CELL CARCIN) was “active; positive”.

Regarding `CNc1nncc2ccccc12`, the carcinogen call is, setting by setting: (Species: MOUSE, Strain/Sex: SWISS/MALE,FEMALE, Route: ORAL, Dose: 0.125% IN WATER, Tumor Site: Type of Lesion: LUNG) “active; positive”; (Species: RAT, Strain/Sex: SPRAGUE-DAWLEY/MALE, Route: ORAL, Dose: 0, 0.035% IN DIET FOR 68-87 WK (STUDY DURATION: 87 WK)) “inactive; negative”; (Species: RAT, Strain/Sex: SPRAGUE-DAWLEY/MALE, Route: SUBCUTANEOUS, Dose: 0, 16.7 MG/KG 1/WK FOR 87 WK (STUDY DURATION: 87 WK)) “inactive; negative”; (Species: RAT, Strain/Sex: SPRAGUE-DAWLEY/MALE, Route: SUBCUTANEOUS, Dose: 0, 16.7 MG/KG 1/WK FOR 87 WK ADMINISTERED TO PARTIALLY HEPATECTOMIZED RATS (STUDY DURATION: 87 WK)) “inactive; negative”.

In the case of `Cc1cc(-c2ccc(N)c(C)c2)ccc1N`, the carcinogen call (Species: MOUSE, Strain/Sex: BALB/FEMALE, Route: ORAL, Dose: 0, 5, 9, 18, 35, 70, 140 PPM IN DRINKING WATER 7 D/WK FOR DURATION OF STUDY (STUDY DURATION: 112 WK), Dose: 0, 5, 9, 18, 35, 70, 140 PPM IN DRINKING WATER 7 D/WK FOR DURATION OF STUDY (STUDY DURATION: 112 WK)) was “inactive; negative”; the carcinogen call (Species: MOUSE, Strain/Sex: BALB/MALE, Route: ORAL, Dose: 0, 5, 9, 18, 35, 70, 140 PPM IN DRINKING WATER 7 D/WK FOR DURATION OF STUDY (STUDY DURATION: 112 WK), Dose: 0, 5, 9, 18, 35, 70, 140 PPM IN DRINKING WATER 7 D/WK FOR DURATION OF STUDY (STUDY DURATION: 112 WK), Tumor Site: Type of Lesion: LUNG: ALVEOLAR CELL ADENOMA AND ADENOCARCINOMA) was “active; positive”; the carcinogen call (Species: RAT, Route: SUBCUTANEOUS, Tumor Site: Type of Lesion: EAR (ZYMBAL GLAND)) is “active; positive”; the carcinogen call (Species: RAT, Strain/Sex: F344/FEMALE, Route: ORAL, Dose: 0, 30, 70, 150 PPM IN DRINKING WATER 7 D/WK FOR 60-61 WK (STUDY DURATION: 60-61 WK), Dose: 0, 30, 70, 150 PPM IN DRINKING WATER 7 D/WK FOR 60-61 WK (STUDY DURATION: 60-61 WK)) is “active; positive”; the carcinogen call (Species: RAT, Strain/Sex: F344/MALE, Route: ORAL, Dose: 0, 30, 70, 150 PPM IN DRINKING WATER 7 D/WK FOR 60-61 WK (STUDY DURATION: 60-61 WK), Dose: 0, 30, 70, 150 PPM IN DRINKING WATER 7 D/WK FOR 60-61 WK (STUDY DURATION: 60-61 WK), Tumor Site: Type of Lesion: PREPUTIAL GLAND: ADENOMA, ADENOMA OR CARCINOMA, LARGE INTESTINE: ADENOMATOUS POLYP, ADENOCARCINOMA, SMALL INTESTINE: ADE, Tumor Site: Type of Lesion: PREPUTIAL GLAND: ADENOMA, ADENOMA OR CARCINOMA, LARGE INTESTINE: ADENOMATOUS POLYP, ADENOCARCINOMA, SMALL INTESTINE: ADE) was “active; positive”.

In the case of `OC1c2cc3ccc4ccccc4c3nc2C2OC2C1O` (stereo unspecified), the carcinogen call (Species: MOUSE, Strain/Sex: SWISS/FEMALE, Route: INTRAPERITONEAL, Dose: 0, 1.05 UMOL GIVEN AS 150 NMOL IN 5 µL DMSO WITHIN 24 HR OF BIRTH, 300 NMOL IN 10 µL DMSO ON D 8 OF LIFE, AND 600 NMOL I) was “inactive; negative” and the carcinogen call (Species: MOUSE, Strain/Sex: SWISS/MALE, Route: INTRAPERITONEAL, Dose: 0, 1.05 UMOL GIVEN AS 150 NMOL IN 5 µL DMSO WITHIN 24 HR OF BIRTH, 300 NMOL IN 10 µL DMSO ON D 8 OF LIFE, AND 600 NMOL I) is “inactive; negative”.

For the molecule `c1ccc2c(c1)ccc1ccccc12`, the carcinogen call (Species: RAT, Strain/Sex: OSBORNE-MENDEL/FEMALE, Route: INTRAPULMONARY IMPLANT, Dose: 0, 1, 3, 10 MG IN BEESWAX AND TRIOCTANOIN IMPLANTED IN LUNG (STUDY DURATION: 141 WK), Dose: 0, 1, 3, 10 MG IN BEESWAX AND TRIOCTANOIN IMPLANTED IN LUNG (STUDY DURATION: 141 WK)) is “inactive; negative”.

On to `OCCN(CCO)C(=S)S`, for which the carcinogen call by setting is: (Species: MOUSE, Strain/Sex: B6AKF1/MALE, Route: GAVAGE/ORAL, Dose: 464 MG/KG FROM D 7-28 OF LIFE THEN 1112 MG/KG IN DIET, Tumor Site: Type of Lesion: LIVER: HEPATOMA) “active; positive”; (Species: MOUSE, Strain/Sex: B6C3F1/MALE,FEMALE, Route: GAVAGE/ORAL, Dose: 464 MG/KG FROM D 7-28 OF LIFE THEN 1112 MG/KG IN DIET, Tumor Site: Type of Lesion: LIVER: HEPATOMA) “active; positive”; (Species: RAT, Strain/Sex: STRAIN-CD/MALE,FEMALE, Route: ORAL, Dose: 500, 1000 PPM IN DIET FOR 78 WK) “inactive; negative”.

As to `O=[N+]([O-])c1ccc2ccc3c(O)ccc4ccc1c2c43`, the carcinogen call is “inactive; negative” under setting [1] and “inactive; negative” under setting [2].

Turning to `Cc1ccc(N=CN(C)C=Nc2ccc(C)cc2C)c(C)c1`, the carcinogen call (Species: Mouse, Strain/Sex: B6C3F1/Female, Route: Oral (diet), Dose: 0, 25, 100, 400 ppm in feed for 104 wks, Dose: 0, 25, 100, 400 ppm in feed for 104 wks, Tumor Site: Type of Lesion: Liver: Hepatocellular adenoma/carcinoma (5/80, 1/61, 3/62, 24/56)) was “active; positive (at highest dose)”; the carcinogen call (Species: Mouse, Strain/Sex: B6C3F1/Male, Route: Oral (diet), Dose: 0, 25, 100, 400 ppm in feed for 104 wks, Dose: 0, 25, 100, 400 ppm in feed for 104 wks) is “inactive; negative”; the carcinogen call (Species: Rat, Strain/Sex: Wistar/Female, Route: Oral (diet), Dose: 0, 15, 50, 200 ppm in feed for 104 wks, Dose: 0, 15, 50, 200 ppm in feed for 104 wks) is “inactive; negative; purity 97.8 and 99.8%”; the carcinogen call (Species: Rat, Strain/Sex: Wistar/Male, Route: Oral (diet), Dose: 0, 15, 50, 200 ppm in feed for 104 wks, Dose: 0, 15, 50, 200 ppm in feed for 104 wks) is “inactive; negative; purity 97.8 and 99.8%”.

As for `O=C1c2ccccc2-c2ccc([N+](=O)[O-])c3cccc1c23`, under “Species: RAT, Strain/Sex: F344/FEMALE, Route: INTRATRACHEAL, Dose: 0, 1.5 MG TOTAL, 2.5 MG TOTAL OVER 18 MO (STUDY DURATION: 18 MO), Dose: 0, 1.5 MG TOTAL, 2.5 MG TOTAL OVER 18 MO (STUDY DURATION: 18 MO), Tumor Site: Type of Lesion: LUNG: CARCINOMA”, the carcinogen call was “active; positive (at higher dosage and longer duration)”.

As to `C=Cc1ccccn1`, under “Species: MOUSE, Strain/Sex: STRAIN-A/FEMALE, Route: INTRAPERITONEAL, Dose: 0, 10 UMOL IN 0.1 ML OLIVE OIL 3/WK FOR 20 DOSES (TOTAL DOSE: 200 UMOL) (STUDY DURATION: 27 WK)”, the carcinogen call was “inactive; negative”.

As to `O=[N+]([O-])c1ccc2ccc3cccc4c3c2c1C1OC41` (stereo unspecified), the carcinogen call by setting is: under setting [1], “inactive; negative”; under setting [2], “inactive; negative”.

As to `Cc1ccc(N=Nc2c(O)c(S(=O)(=O)O)cc3cc(S(=O)(=O)O)ccc23)c(C)c1`, the carcinogen call is “active; positive” (Species: MOUSE, Route: ORAL, Tumor Site: Type of Lesion: LIVER) and “active; positive” (Species: RAT, Route: ORAL, Tumor Site: Type of Lesion: LIVER).
